Measured values reported in patent US20210290680A1, “METHODS AND COMPOSITIONS FOR MODULATING CELLULAR AGING” (Dorian Therapeutics, Inc., priority 2019, published 2021).

Tests used:
CDKN2A = assay: qPCR of senescence marker CDKN2A; type: cell-based, human; conditions: CD19.CAR, day 15, n=4
Source text: Primary T cells were activated as described (Example 3), transduced with a lentivirus encoding for either a CD19.CAR or a GD2.CAR co-expressing shUSP16 #1, shUSP16 #2 or a scrambled shRNA (Control). Fifteen days post-activation, T cells were collected and qPCR performed. TaqMan probes detecting CDKN1A, CDKN2A (FIGS. 26A and 26B) (fold change GD2.CAR (n=4): CDKN1A Control vs shUSP #1: 0.4360, p<0.0001, and Control vs shUSP16 #2: 3.036, p=0.004 respectively. Fold change CD19.CAR (n=4): CDKN2a, CDKN1A Control vs shUSP #1: 0.6906, p=0.0026; 0.7228, p=0.0297 and Control vs shUSP16 #2: 0.8385, p=0.2325; 0.7017, p=0.0021), TCF7, LEF1, and Axin-2 (FIGS. 27A and B) were analyzed in GD2.CAR and CD19.CAR-expressing cells, respectively. ACTB was used as internal control. (GD2.CAR (n=4) TCF7, LEF1 and Axin-2: Control vs shUSP #1: 1.914 p=0.0512; 1.795 p=0.0323; 3.269 p=0.15 and Control vs shUSP16 #2: 1.284 p=0.0494; 1.718 p=0.0586; 2.035p=0.235, respectively. Fold change CD19.CAR (n=4): TCF7, LEF1 and Axin-2: Control vs shUSP #1: 1.528, p=0.0277; 1.82, p=0.0449; 1.998, p=0.031 and Control vs shUSP16 #2: 1.18, p=0.2002; 1.579, p=0.0632; 1.261, p=0.2382). […]

NALM leukemia cell line = assay: In vivo anti-tumor activity of CD19.CAR T cells (circulating Gaussia luciferase); conditions: immunocompromised mice, one million CD19.CAR T cells via tail vein, n=4-6
Procedure: Primary T cells were activated and prepared, as in Example 26. NALM leukemia cell line was transduced with Gaussia Luciferase and one million cells were injected via tail vein at d−4. One million of CD19.CAR T cells were then infused via tail vein at d=0 and mice were weighted, and blood was collected every week (FIG. 38). Tumor growth was monitor by weekly assessment of circulating luciferase. Briefly, blood was collected and subsequently analyzed for luciferase expression using Nanolight Technologies Luciferase detection Kit. Luciferase expression (calculated as GLuc, RLU (Relative Luminescence Unit)) in the blood correlates with tumor engraftment. As NALM cells engraft primarily in the spleen, at the time of sacrifice, the spleens were collected and photographed (FIG. 39B), the size of the spleen directly correlates to the amount of tumor infiltrated in the organ.

Axin-2 = assay: qPCR of WNT pathway gene Axin-2; type: cell-based, human; conditions: day 15, n=4; for Axin-2 expression, fold change vs Control: CD19.CAR
Source text: Primary T cells were activated as described (Example 3), transduced with a lentivirus encoding for either a CD19.CAR or a GD2.CAR co-expressing shUSP16 #1, shUSP16 #2 or a scrambled shRNA (Control). Fifteen days post-activation, T cells were collected and qPCR performed. TaqMan probes detecting CDKN1A, CDKN2A (FIGS. 26A and 26B) (fold change GD2.CAR (n=4): CDKN1A Control vs shUSP #1: 0.4360, p<0.0001, and Control vs shUSP16 #2: 3.036, p=0.004 respectively. Fold change CD19.CAR (n=4): CDKN2a, CDKN1A Control vs shUSP #1: 0.6906, p=0.0026; 0.7228, p=0.0297 and Control vs shUSP16 #2: 0.8385, p=0.2325; 0.7017, p=0.0021), TCF7, LEF1, and Axin-2 (FIGS. 27A and B) were analyzed in GD2.CAR and CD19.CAR-expressing cells, respectively. ACTB was used as internal control. (GD2.CAR (n=4) TCF7, LEF1 and Axin-2: Control vs shUSP #1: 1.914 p=0.0512; 1.795 p=0.0323; 3.269 p=0.15 and Control vs shUSP16 #2: 1.284 p=0.0494; 1.718 p=0.0586; 2.035p=0.235, respectively. Fold change CD19.CAR (n=4): TCF7, LEF1 and Axin-2: Control vs shUSP #1: 1.528, p=0.0277; 1.82, p=0.0449; 1.998, p=0.031 and Control vs shUSP16 #2: 1.18, p=0.2002; 1.579, p=0.0632; 1.261, p=0.2382). USP16 downregulation in CAR-T cells results in a decreased expression of senescence markers and an increase in the expression of genes associated with the activation/increased signaling of the WNT pathway, indicating its importance in delaying cellular senescence and increasing self-renewal.

[1] = system: CD19.CAR and GD2.CAR T cells; assay: CAR-T cell proliferation (fold increase compared to control cells); type: cell-based, human
Source text: Plasmids encoding for 2nd generation CAR specific for CD19 (Lenti-EF1a-CD19(FMC63)-2nd-CAR(CD28)-EGFRt) or GD2 (Lenti-EF1a-GD2(14G2a)-2nd-CAR(CD28)-EGFRt) were purchased from Creative Biolabs. The CAR containing plasmids were engineered to co-express a shRNA targeting USP16. The shRNA sequences are: shUSP16 #1 5′-[…]-3′ (SEQ ID NO: 8) and shUSP16 #2 5′-[…]-3′ (SEQ ID NO: 9). Primary T cells were activated as described (Example 3), transduced with a lentivirus encoding for either a CD19.CAR or a GD2.CAR co-expressing shUSP16 #1, shUSP16 #2 or a scrambled shRNA (Control). Cells were cultured in IL-2 and sorted between days 6-13 for EGFRt. Briefly, cells were stained with biotin EGFR antibody (R&D) and magnetically sorted with anti-biotin or streptavidin conjugated beads (Miltenyi Biotec) using the LS columns (Miltenyi Biotec). The positive population was isolated and expanded in regular TC-treated plates or in G-Rex 6 well culture plate (Wilson Wolf). The G-Rex platform was used to achieve a rapid expansion of T cells for in vitro and in vivo applications.
Primary T cells were activated as described (Example 3), transduced with a lentivirus encoding for either a CD19.CAR or a GD2.CAR co-expressing shUSP16 #1, shUSP16 #2 or a scrambled shRNA (Control). Cells were cultured in IL-2 and sorted between days 6-13 for EGFRt. Cells were plated post-sorting with a purity higher than 85% and counted every 2-4 days by Trypan Blue exclusion using Vi-CELL XR cell counter. Fifteen days post-activation both CD19.CAR and GD2.CAR T cells were collected, and qPCR was performed to verify downregulation of USP16 expression (FIG. 24) (fold change GD2.CAR (n=3): Control vs shUSP #1: 0.35, p<0.0001, and Control vs shUSP16 #2: 0.2452, p<0.0001, fold change CD19.CAR (n=4): Control vs shUSP #1: 0.2891, p<0.0001, and Control vs shUSP16 #2: 0.2566, p<0.0001). Proliferation was measured as fold increase compared to control cells at day 15 (FIG. 25).

| Substance | CDKN2a expression, fold change vs Control (CDKN2A) | NALM engraftment, luciferase expression in blood (GLuc) (NALM leukemia cell line) [RLU] | Axin-2 expression, fold change vs Control (Axin-2) | T cell expansion, fold change vs Control ([1]; CD19.CAR, day 15, n=4) | T cell expansion, fold change vs Control ([1]; GD2.CAR, day 15, n=3) | Axin-2 expression vs Control (Axin-2; GD2.CAR) |
| --- | --- | --- | --- | --- | --- | --- |
| shUSP16 #2: shRNA targeting USP16, 5′-TATATCAGTTCACCCGTAAT-3′ (SEQ ID NO: 9), pSIH backbone or co-expressed in CAR plasmid | 0.8385 | 5169 | 1.261 | 3.036 | 3.036 |  |
| shUSP16 #1: shRNA targeting USP16, 5′-GACTGTAAGACTGACAATAAA-3′ (SEQ ID NO: 8), pSIH backbone or co-expressed in CAR plasmid | 0.6906 | 38603 | 1.998 | 2.259 | 2.147 | 3.269 |
